Test: Nav 1.7In Vitro PX Assay: HEK 293 cells stably transfected with human Nav1.7 were recorded in whole cell voltage clamp mode with the PatchXpress automated electrophysiology system (Molecular Devices, LLC, Sunnyvale, Calif.). Compound effects were measured on a partially inactivated state of the sodium channel. Cells were clamped to a holding potential yielding 20 to 50% inactivation. To elicit sodium current, channels were activated by pulsing to −10 mV for 20 msec. This voltage protocol was repeated at a rate of 0.1 Hz throughout the experiment. A single concentration of test compound was applied to cells for a duration of 3 minutes. Peak sodium current was measured at the end of the compound addition period to determine percent inhibition. Three to five cells were tested per concentration, and IC50 curves were fitted to percent inhibition as a function of concentration.
Conditions: HEK293

Structure (SMILES)	IC50 [µM]
CNC(=O)N(c1ccc(S(=O)(=O)Nc2ccon2)cn1)c1cc(F)c(-c2cc(F)c(F)c(F)c2)cc1OC	0.086
CNC(=O)N(c1ccc(S(=O)(=O)Nc2ccon2)cn1)c1cc(Cl)c(-c2cc(F)cc(Cl)c2)cc1OC	0.028
